Measurements from patent US20090047684A1, “Gene and protein expression profiles associated with the therapeutic efficacy of irinotecan” (Nuclea Biomarkers, LLC, priority 2006, published 2009).
Structures can show the parent of a compound that is named as a salt.

Tested on: tumor cells derived from patients who were responsive to treatment with irinotecan
Assay: xenograft of patient-derived tumor cells in SCID mice treated with irinotecan
Assay type: in vivo
Settings: SCID mice with established xenograft tumors, injected with 200 mg/kg of irinotecan
Experimental: Positive expression also was evaluated using a xenograft array. SCID mice were injected with tumor cells derived from patients who were responsive to treatment with irinotecan, and the tumors were allowed to grow in the mice. Once the tumors were established, the mice were injected with 200 mg/kg of irinotecan, and the mice were monitored to observe responsiveness to the drug. […] Prior to treatment with the drug, samples of the tumors were extracted from the mice and used to make a TMA.

Structure (SMILES): CCc1c2c(nc3ccc(OC(=O)N4CCC(N5CCCCC5)CC4)cc13)-c1cc3c(c(=O)n1C2)COC(=O)[C@]3(O)CC [irinotecan, Irinotecan hydrochloride]
- responsiveness to the drug: effect on tumors formed in the SCID mice: reduced or eliminated
